Source: patent US6274715A, “Tricyclic erythromycin derivatives” (priority 1997, dated 2001)
Values after ≈ are worked out from the molar mass of the structure shown.

Key:
Type in all cases: cell-based
[1] = tested on: CANDIDA ALBICANS CCH 442; experiment: In vitro antibacterial activity, MIC, BHI agar dilution; conditions: C. albicans CCH 442, unit assumed
[2] = tested on: ESCHERICHIA COLI SS; experiment: as above; conditions: E. coli SS, unit assumed
[3] = tested on: PSEUDOMONAS AERUGINOSA K799/61; experiment: as above; conditions: P. aeruginosa K799/61, unit assumed
[4] = tested on: PSEUDOMONAS AERUGINOSA DPHD-2862; experiment: as above; conditions: P. aeruginosa DPHD-2862, unit assumed
[5] = tested on: PSEUDOMONAS AERUGINOSA BMH10; experiment: as above; conditions: P. aeruginosa BMH10, unit assumed
[6] = tested on: ACINETOBACTER CALCOACETICUS CMX 669; experiment: as above; conditions: A. calcoaceticus CMX 669, unit assumed
[7] = tested on: ESCHERICHIA COLI DC-2; experiment: as above; conditions: E. coli DC-2, unit assumed
[8] = tested on: PSEUDOMONAS AERUGINOSA 5007; experiment: as above; conditions: P. aeruginosa 5007, unit assumed
[9] = tested on: ESCHERICHIA COLI JUHL; conditions: E. coli JUHL; BHI agar; unit assumed
[10] = tested on: KLEBSIELLA PNEUMONIAE ATCC 8045; experiment: In vitro antibacterial activity, MIC, BHI agar dilution; conditions: K. pneumoniae ATCC 8045, unit assumed
[11] = tested on: STAPHYLOCOCCUS AUREUS A-5278; experiment: as above; conditions: S. aureus A-5278, unit assumed
[12] = tested on: STREPTOCOCCUS BOVIS A-5169; experiment: as above; conditions: S. bovis A-5169, unit assumed
[13] = tested on: STREPTOCOCCUS PYOGENES EES61; experiment: as above; conditions: S. pyogenes EES61, unit assumed
[14] = tested on: MYCOBACTERIUM SMEGMATIS ATCC 114; experiment: as above; conditions: M. smegmatis ATCC 114, unit assumed
[15] = tested on: STREPTOCOCCUS PYOGENES 930; experiment: as above; conditions: S. pyogenes 930, unit assumed
[16] = tested on: STAPHYLOCOCCUS EPIDERMIDIS 3519; conditions: S. epidermidis 3519; BHI agar; unit assumed
[17] = tested on: STAPHYLOCOCCUS AUREUS 1775; experiment: In vitro antibacterial activity, MIC, BHI agar dilution; conditions: S. aureus 1775, unit assumed
[18] = tested on: STAPHYLOCOCCUS AUREUS CMX 553; experiment: as above; conditions: S. aureus CMX 553, unit assumed
[19] = tested on: PROVIDENCIA STUARTII CMX 640; conditions: P. stuartii CMX 640; BHI agar; unit assumed
[20] = tested on: STAPHYLOCOCCUS AUREUS CMX 642A; experiment: In vitro antibacterial activity, MIC, BHI agar dilution; conditions: S. aureus CMX 642A, unit assumed
[21] = tested on: STAPHYLOCOCCUS AUREUS NCTC10649M; experiment: as above; conditions: S. aureus NCTC10649M, unit assumed
[22] = tested on: ENTEROBACTER AEROGENES ATCC 13048; experiment: as above; conditions: E. aerogenes ATCC 13048, unit assumed
[23] = tested on: ESCHERICHIA COLI KNK 437; conditions: E. coli KNK 437; BHI agar; unit assumed
[24] = tested on: PSEUDOMONAS AERUGINOSA DPHD-5263; experiment: In vitro antibacterial activity, MIC, BHI agar dilution; conditions: P. aeruginosa DPHD-5263, unit assumed
[25] = tested on: M[…] ATCC 4698; experiment: as above; conditions: M. luteus ATCC 4698, unit assumed
Summary of the method: (§1)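 BHI agar dilution: twelve plates with successive compound dilutions, inoculated by replicator with 1:100 culture dilutions (1:10 for slow growers such as Micrococcus and Streptococcus), 20 to 24 hours at 35-37° C. MIC was the lowest concentration giving no growth, slight haze or sparse isolated colonies versus drug-free control; erythromycin A as class reference.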

[26] = tested on: STR[…] 508; experiment: as above; conditions: S. agalactiae CMX 508, unit assumed
Summary of the method: as §1

[27] = tested on: EN[…] ATCC 8043; experiment: as above; conditions: E. faecium ATCC 8043, unit assumed
Summary of the method: as §1

[28] = tested on: M[…] ATCC 9341; experiment: as above; conditions: M. luteus ATCC 9341, unit assumed
Summary of the method: as §1

[29] = tested on: STAPHYLOCOCCUS AUREUS ATCC 6538P; experiment: as above; conditions: S. aureus ATCC 6538P, 35-37° C., 20 to 24 hours, unit assumed
[30] = tested on: STREPTOCOCCUS PYOGENES PIU 2548; experiment: as above; conditions: S. pyogenes PIU 2548, unit assumed
[31] = tested on: STAPHYLOCOCCUS AUREUS A5177; experiment: as above; conditions: S. aureus A5177, unit assumed
[32] = tested on: PSEUDOMONAS AERUGINOSA K799/WT; experiment: as above; conditions: P. aeruginosa K799/WT, unit assumed
[33] = tested on: PSEUDOMONAS CEPACIA 296I; experiment: as above; conditions: P. cepacia 296I, unit assumed
[34] = tested on: ESCHERICHIA COLI H560; experiment: as above; conditions: E. coli H560, unit assumed

SMILES	MIC [1] [µg/mL]	MIC [2] [µg/mL]	MIC [3] [µg/mL]	MIC [4] [µg/mL]	MIC [5] [µg/mL]	MIC [6] [µg/mL]	MIC [7] [µg/mL]	MIC [8] [µg/mL]	MIC [9] [µg/mL]	MIC [10] [µg/mL]	MIC [11] [µg/mL]	MIC [12] [µg/mL]	MIC [13] [µg/mL]	MIC [14] [µg/mL]	MIC [15] [µg/mL]	MIC [16] [µg/mL]	MIC [17] [µg/mL]	MIC [18] [µg/mL]	MIC [19] [µg/mL]	MIC [20] [µg/mL]	further results
CC[C@H]1OC(=O)[C@H](C)C(=O)[C@H](C)[C@@H](O[C@@H]2O[C@H](C)C[C@H](N(C)C)[C@H]2O)[C@](C)(OC)C[C@@H](C)C2=N[C@H](CN(C)Cc3ccccc3)CN3C(=O)O[C@@]1(C)[C@H]3[C@H]2C [Example 58]	> 100	0.39 (≈ 0.506 µM)	3.1 (≈ 4.02 µM)	> 100	> 100	> 100	> 100	> 100	> 100	> 100	> 100	0.01 (≈ 0.013 µM)	0.01 (≈ 0.013 µM)	3.1 (≈ 4.02 µM)	> 100	0.78 (≈ 1.01 µM)	> 100	0.78 (≈ 1.01 µM)	> 100	0.78 (≈ 1.01 µM)	MIC [21]: 0.78 µg/mL (≈ 1.01 µM); MIC [22]: > 100 µg/mL; MIC [23]: > 100 µg/mL; MIC [24]: > 100 µg/mL; MIC [25]: 0.39 µg/mL (≈ 0.506 µM); MIC [26]: 0.02 µg/mL (≈ 0.0259 µM); MIC [27]: 0.2 µg/mL (≈ 0.259 µM); MIC [28]: 0.1 µg/mL (≈ 0.13 µM); MIC [29]: 0.78 µg/mL (≈ 1.01 µM); MIC [30]: 0.39 µg/mL (≈ 0.506 µM); MIC [31]: 0.78 µg/mL (≈ 1.01 µM); MIC [32]: > 100 µg/mL; MIC [33]: > 100 µg/mL; MIC [34]: 50 µg/mL (≈ 64.9 µM)
CC[C@H]1OC(=O)[C@H](C)C(=O)[C@H](C)[C@@H](O[C@@H]2O[C@H](C)C[C@H](N(C)C)[C@H]2O)[C@](C)(OC)C[C@@H](C)C2=NC[C@H](Cc3ccc(O)cc3)N3C(=O)O[C@@]1(C)[C@H]3[C@H]2C [Example 65]	> 100	0.39 (≈ 0.524 µM)	0.78 (≈ 1.05 µM)	> 100	> 100	100 (≈ 134 µM)	50 (≈ 67.2 µM)	> 100	50 (≈ 67.2 µM)	> 100	> 100	0.01 (≈ 0.0134 µM)	0.02 (≈ 0.0269 µM)	6.2 (≈ 8.33 µM)	> 100	0.39 (≈ 0.524 µM)	> 100	0.39 (≈ 0.524 µM)	> 100	0.39 (≈ 0.524 µM)	MIC [21]: 0.39 µg/mL (≈ 0.524 µM); MIC [22]: > 100 µg/mL; MIC [23]: 100 µg/mL (≈ 134 µM); MIC [24]: > 100 µg/mL; MIC [25]: 0.39 µg/mL (≈ 0.524 µM); MIC [26]: 0.02 µg/mL (≈ 0.0269 µM); MIC [27]: 0.1 µg/mL (≈ 0.134 µM); MIC [28]: 0.05 µg/mL (≈ 0.0672 µM); MIC [29]: 0.39 µg/mL (≈ 0.524 µM); MIC [30]: 1.56 µg/mL (≈ 2.1 µM); MIC [31]: 0.39 µg/mL (≈ 0.524 µM); MIC [32]: > 100 µg/mL; MIC [33]: 100 µg/mL (≈ 134 µM); MIC [34]: 50 µg/mL (≈ 67.2 µM)
CC[C@H]1OC(=O)[C@H](C)C(=O)[C@H](C)[C@@H](O[C@@H]2O[C@H](C)C[C@H](N(C)C)[C@H]2O)[C@](C)(OC)C[C@@H](C)C2=N[C@H](COCc3ccc(C(=O)OC)cc3)CN3C(=O)O[C@@]1(C)[C@H]3[C@H]2C [Example 84]	> 100	1.56 (≈ 1.91 µM)	3.1 (≈ 3.8 µM)	> 100	> 100	> 100	> 100	> 100	> 100	> 100	> 100	≤ 0.005	0.02 (≈ 0.0245 µM)	0.78 (≈ 0.956 µM)	100 (≈ 123 µM)	0.39 (≈ 0.478 µM)	> 100	0.2 (≈ 0.245 µM)	> 100	0.2 (≈ 0.245 µM)	MIC [21]: 0.2 µg/mL (≈ 0.245 µM); MIC [22]: > 100 µg/mL; MIC [23]: > 100 µg/mL; MIC [24]: > 100 µg/mL; MIC [25]: 0.39 µg/mL (≈ 0.478 µM); MIC [26]: 0.02 µg/mL (≈ 0.0245 µM); MIC [27]: 0.05 µg/mL (≈ 0.0613 µM); MIC [28]: 0.1 µg/mL (≈ 0.123 µM); MIC [29]: 0.2 µg/mL (≈ 0.245 µM); MIC [30]: 0.2 µg/mL (≈ 0.245 µM); MIC [31]: 0.2 µg/mL (≈ 0.245 µM); MIC [32]: > 100 µg/mL; MIC [33]: > 100 µg/mL; MIC [34]: > 100 µg/mL
CC[C@H]1OC(=O)[C@H](C)C(=O)[C@H](C)[C@@H](O[C@@H]2O[C@H](C)C[C@H](N(C)C)[C@H]2O)[C@](C)(OC)C[C@@H](C)C2=N[C@H](COCc3ccnc4ccccc34)CN3C(=O)O[C@@]1(C)[C@H]3[C@H]2C [Example 85]	> 100	0.78 (≈ 0.964 µM)	3.1 (≈ 3.83 µM)	> 100	> 100	100 (≈ 124 µM)	> 100	> 100	> 100	> 100	> 100	0.01 (≈ 0.0124 µM)	≤ 0.005	3.1 (≈ 3.83 µM)	100 (≈ 124 µM)	0.2 (≈ 0.247 µM)	> 100	0.2 (≈ 0.247 µM)	> 100	0.2 (≈ 0.247 µM)	MIC [21]: 0.39 µg/mL (≈ 0.482 µM); MIC [22]: > 100 µg/mL; MIC [23]: > 100 µg/mL; MIC [24]: > 100 µg/mL; MIC [25]: 0.78 µg/mL (≈ 0.964 µM); MIC [26]: 0.02 µg/mL (≈ 0.0247 µM); MIC [27]: 0.02 µg/mL (≈ 0.0247 µM); MIC [28]: 0.02 µg/mL (≈ 0.0247 µM); MIC [29]: 0.2 µg/mL (≈ 0.247 µM); MIC [30]: 0.1 µg/mL (≈ 0.124 µM); MIC [31]: 0.2 µg/mL (≈ 0.247 µM); MIC [32]: > 100 µg/mL; MIC [33]: 100 µg/mL (≈ 124 µM); MIC [34]: > 100 µg/mL
